Reference: US20060154922A1, “Muscarinic agonists” (ELILILLY AND COMPANY, priority 2003, published 2006)
Where two headings read alike, the source gives them in different places.

System: Male Sprague-Dawley rats
Conditions: six-hour delay

Nc1c2c(nc3ccccc13)CCCC2 [Tacrine, tacrine] was tested, and the “retention (errors in the retention session)” value (3 mg/kg s.c. immediately after the sampling phase) was “not” and the “retention (errors in the retention session)” value (10 mg/kg s.c. immediately after the sampling phase) was “significantly improved retention”.
